Test results from patent US8324248B2, “Piperidine derivatives as NK3 receptor antagonists” (Hoffmann-La Roche Inc., priority 2009, dated 2012).

Target: T1, recombinant human NK3 receptor (Homo sapiens, UniProt P29371)
T1 construct: expressed in transfected cells; host or cells: HEK293 cells (transient expression), membranes
T1 sequence (P29371 1-465): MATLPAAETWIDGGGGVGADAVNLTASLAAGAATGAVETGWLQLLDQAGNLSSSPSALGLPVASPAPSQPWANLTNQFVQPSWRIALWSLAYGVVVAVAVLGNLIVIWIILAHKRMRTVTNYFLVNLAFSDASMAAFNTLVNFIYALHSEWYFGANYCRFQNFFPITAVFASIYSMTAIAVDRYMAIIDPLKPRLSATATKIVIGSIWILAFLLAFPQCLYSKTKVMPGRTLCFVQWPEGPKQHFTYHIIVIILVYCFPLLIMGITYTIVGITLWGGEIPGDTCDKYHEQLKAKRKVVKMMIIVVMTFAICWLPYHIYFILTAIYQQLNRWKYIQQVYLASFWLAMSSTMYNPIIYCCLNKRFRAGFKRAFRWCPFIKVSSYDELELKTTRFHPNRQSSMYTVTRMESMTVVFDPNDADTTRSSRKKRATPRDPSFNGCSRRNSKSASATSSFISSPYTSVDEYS
Assay: [3H]SR142801 competition binding assay, hNK3 receptor binding
Settings: [3H]SR142801 displacement; membranes from HEK293 cells transiently expressing recombinant human NK3 receptor; Ki by Cheng-Prussoff from IC50
Description: The compounds were investigated in accordance with the tests given hereinafter. [^3H]SR142801 competition binding assay hNK3 receptor binding experiment were performed using [^3H]SR142801 (Catalog No. TRK1035, specific activity: 74.0 Ci/mmol, Amersham, GE Healthcare UK limited, Buckinghamshire, UK) and membrane isolated from HEK293 cells transiently expressing recombinant human NK3 receptor. After thawing, the membrane homogenates were centrifuged at 48,000×g for 10 min at 4° C., the pellets were resuspended in the 50 mM Tris-HCl, 4 mM MnCl2, 1 μM phosphoramidon, 0.1% BSA binding buffer at pH 7.4 to a final assay concentration of 5 μg protein/well. For inhibition experiments, membranes were incubated with [^3H]SR142801 at a concentration equal to KD value of radioligand and 10 concentrations of the inhibitory compound (0.0003-10 μM) (in a total reaction volume of 500 μl) for 75 min at room temperature (RT). At the end of the incubation, membranes were filtered onto unitfilter (96-well white microplate with bonded GF/C filter preincubated 1 h in 0.3% PEI+0.3% BSA, Packard BioScience, Meriden, Conn.) with a Filtermate 196 harvester (Packard BioScience) and washed 4 times with ice-cold 50 mM Tris-HCl, pH 7.4 buffer. Nonspecific binding was measured in the presence of 10 μM SB222200 for both radioligands. The radioactivity on the filter was counted (5 min) on a Packard Top-count microplate scintillation counter with quenching correction after addition of 45 μl of microscint 40 (Can berra Packard S. A., Zürich, Switzerland) and shaking for 1 h. Inhibition curves were fitted according to the Hill equation: y=100/(1+(x/IC50)^nH), where nH=slope factor using Excel-fit 4 software (Microsoft). IC50 values were derived from the inhibition curve and the affinity constant (Ki) values were calculated using the Cheng-Prussoff equation Ki=IC50/(1+[L]/KD) where [L] is the concentration of radioligand and KD is its dissociation constant at the receptor, derived from the saturation isotherm. All experiments were performed in duplicate and the mean±standard error (SEM) of the individual Ki values was calculated.

CC(Nc1ccc(C#N)cn1)[C@H]1CCN(C(=O)C2CCN(c3ccc(C#N)cn3)CC2)C[C@@H]1c1ccc(Cl)cc1 (mixture of isomers) [Example 68, 4-{(3S,4S)-3-(4-Chloro-phenyl)-4-[(SR)-1-(5-cyano-pyridin-2-ylamino)-ethyl]-piperidine-1-carbonyl}-3,4,5,6-tetrahydro-2H-[1,2′]bipyridinyl-5′-carbonitrile]
Ki: 1.4 nM

C[C@H](Oc1ccc(Cl)cn1)[C@H]1CCN(C(=O)C2CCN(C(=O)C3(C)CC3)CC2)C[C@@H]1c1ccc(Cl)cc1 (racemic) [Example 5, (4-{(3SR, 4SR)-3-(4-Chloro-phenyl)-4-[(SR)-1-(5-chloro-pyridin-2-yloxy)-ethyl]-piperidine-1-carbonyl}-piperidin-1-yl)-(1-methyl-cyclopropyl)-methanone]
Ki: 4.1 nM

Cc1noc(-c2ccc(C(=O)N3CC[C@H](COc4ccc(Cl)cn4)[C@@H](c4ccc(F)c(F)c4)C3)cc2)n1 (racemic) [Example 31, [(3SR,4SR)-4-(5-Chloro-pyridin-2-yloxymethyl)-3-(3,4-difluoro-phenyl)-piperidin-1-yl]-[4-(3-methyl-[1,2,4]oxadiazol-5-yl)-phenyl]-methanone]
Ki: 8.3 nM

CC1(C(=O)N2CCC(C(=O)N3CC[C@H](COc4ccc(Cl)cn4)[C@@H](c4ccc(F)c(F)c4)C3)CC2)CC1 (racemic) [Example 32, {4-[(3SR,4SR)-4-(5-Chloro-pyridin-2-yloxymethyl)-3-(3,4-difluoro-phenyl)-piperidine-1-carbonyl]-piperidin-1-yl}-(1-methyl-cyclopropyl)-methanone]
Ki: 5.8 nM

N#Cc1ccc(N2CCC(C(=O)N3CC[C@H](COc4ccc(Cl)cn4)[C@@H](c4ccc(F)c(F)c4)C3)CC2)nc1 (relative stereo) [Example 33]
Ki: 1.3 nM

C[C@H](Oc1ccc(Cl)cn1)[C@H]1CCN(C(=O)C2CCN(C(=O)C3(C)CC3)CC2)C[C@@H]1c1ccc(Cl)cc1 (stereo in doubt) [Example 7, (4-{(3S,4S)-3-(4-Chloro-phenyl)-4-[(S)-1-(5-chloro-pyridin-2-yloxy)-ethyl]-piperidine-1-carbonyl}-piperidin-1-yl)-(1-methyl-cyclopropyl)-methanone]
Ki: 2.6 nM

Cc1cc(C(=O)N2CC[C@H]([C@H](C)Oc3ccc(Cl)cn3)[C@@H](c3ccc(Cl)cc3)C2)cnn1 [Example 10, {(3S,4S)-3-(4-Chloro-phenyl)-4-[(S)-1-(5-chloro-pyridin-2-yloxy)-ethyl]-piperidin-1-yl}-(6-methyl-pyridazin-4-yl)-methanone]
Ki: 3.6 nM

Cc1noc(-c2ccc(C(=O)N3CC[C@H]([C@H](C)Oc4ccc(Cl)cn4)[C@@H](c4ccc(Cl)cc4)C3)cc2)n1 [Example 11, {(3S,4S)-3-(4-Chloro-phenyl)-4-[(S)-1-(5-chloro-pyridin-2-yloxy)-ethyl]-piperidin-1-yl}-[4-(3-methyl-[1,2,4]oxadiazol-5-yl)-phenyl]-methanone]
Ki: 1.8 nM

Cc1nc(-c2ccc(C(=O)N3CC[C@H]([C@H](C)Oc4ccc(Cl)cn4)[C@@H](c4ccc(Cl)cc4)C3)cc2)no1 [Example 12, {(3S,4S)-3-(4-Chloro-phenyl)-4-[(S)-1-(5-chloro-pyridin-2-yloxy)-ethyl]-piperidin-1-yl}-[4-(5-methyl-[1,2,4]oxadiazol-3-yl)-phenyl]-methanone]
Ki: 2.3 nM

C[C@H](Oc1ccc(Cl)cn1)[C@H]1CCN(C(=O)C2CCN(c3ccc(C#N)cn3)CC2)C[C@@H]1c1ccc(Cl)cc1 [Example 13, 4-{(3S,4S)-3-(4-Chloro-phenyl)-4-[(S)-1-(5-chloro-pyridin-2-yloxy)-ethyl]-piperidine-1-carbonyl}-3,4,5,6-tetrahydro-2H-[1,2′]bipyridinyl-5′-carbonitrile]
Ki: 0.3 nM

C[C@H](Oc1ccc(Cl)cn1)[C@H]1CCN(C(=O)N2CCN(S(C)(=O)=O)CC2)C[C@@H]1c1ccc(Cl)cc1 [Example 14, {(3S,4S)-3-(4-Chloro-phenyl)-4-[(S)-1-(5-chloro-pyridin-2-yloxy)-ethyl]-piperidin-1-yl}-(4-methanesulfonyl-piperazin-1-yl)-methanone]
Ki: 2.6 nM

C[C@H](Oc1ccc(C(F)(F)F)cn1)[C@H]1CCN(C(=O)C2CCN(C(=O)C3(C)CC3)CC2)C[C@@H]1c1ccc(Cl)cc1 [Example 16, (4-{(3S,4S)-3-(4-Chloro-phenyl)-4-[(S)-1-(5-trifluoromethyl-pyridin-2-yloxy)-ethyl]-piperidine-1-carbonyl}-piperidin-1-yl)-(1-methyl-cyclopropyl)-methanone]
Ki: 1.6 nM

Cc1cc(C(=O)N2CC[C@H]([C@H](C)Oc3ccc(C(F)(F)F)cn3)[C@@H](c3ccc(Cl)cc3)C2)cnn1 [Example 17, {(3S,4S)-3-(4-Chloro-phenyl)-4-[(S)-1-(5-trifluoromethyl-pyridin-2-yloxy)-ethyl]-piperidin-1-yl}-(6-methyl-pyridazin-4-yl)-methanone]
Ki: 5.6 nM

Cc1noc(-c2ccc(C(=O)N3CC[C@H]([C@H](C)Oc4ccc(C(F)(F)F)cn4)[C@@H](c4ccc(Cl)cc4)C3)cc2)n1 [Example 18, {(3S,4S)-3-(4-Chloro-phenyl)-4-[(S)-1-(5-trifluoromethyl-pyridin-2-yloxy)-ethyl]-piperidin-1-yl}-[4-(3-methyl-[1,2,4]oxadiazol-5-yl)-phenyl]-methanone]
Ki: 1.2 nM

Cc1nc(-c2ccc(C(=O)N3CC[C@H]([C@H](C)Oc4ccc(C(F)(F)F)cn4)[C@@H](c4ccc(Cl)cc4)C3)cc2)no1 [Example 19, {(3S,4S)-3-(4-Chloro-phenyl)-4-[(S)-1-(5-trifluoromethyl-pyridin-2-yloxy)-ethyl]-piperidin-1-yl}-[4-(5-methyl-[1,2,4]oxadiazol-3-yl)-phenyl]-methanone]
Ki: 1.4 nM

C[C@H](Oc1ccc(C(F)(F)F)cn1)[C@H]1CCN(C(=O)C2CCN(c3ccc(C#N)cn3)CC2)C[C@@H]1c1ccc(Cl)cc1 [Example 20, 4-{(3S,4S)-3-(4-Chloro-phenyl)-4-[(S)-1-(5-trifluoromethyl-pyridin-2-yloxy)-ethyl]-piperidine-1-carbonyl}-3,4,5,6-tetrahydro-2H-[1,2′]bipyridinyl-5′-carbonitrile]
Ki: 0.2 nM

C[C@H](Oc1ccc(C(F)(F)F)cn1)[C@H]1CCN(C(=O)N2CCN(S(C)(=O)=O)CC2)C[C@@H]1c1ccc(Cl)cc1 [Example 21, {(3S,4S)-3-(4-Chloro-phenyl)-4-[(S)-1-(5-trifluoromethyl-pyridin-2-yloxy)-ethyl]-piperidin-1-yl}-(4-methanesulfonyl-piperazin-1-yl)-methanone]
Ki: 4.7 nM

C[C@H](Oc1ccc(C#N)cn1)[C@H]1CCN(C(=O)C2CCN(C(=O)C3(C)CC3)CC2)C[C@@H]1c1ccc(Cl)cc1 [Example 23, 6-((S)-1-{(3S,4S)-3-(4-Chloro-phenyl)-1-[1-(1-methyl-cyclopropanecarbonyl)-piperidine-4-carbonyl]-piperidin-4-yl}-ethoxy)-nicotinonitrile]
Ki: 1.1 nM

Cc1cc(C(=O)N2CC[C@H]([C@H](C)Oc3ccc(C#N)cn3)[C@@H](c3ccc(Cl)cc3)C2)cnn1 [Example 24, 6-{(S)-1-[(3S,4S)-3-(4-Chloro-phenyl)-1-(6-methyl-pyridazine-4-carbonyl)-piperidin-4-yl]-ethoxy}-nicotinonitrile]
Ki: 8.7 nM

Cc1noc(-c2ccc(C(=O)N3CC[C@H]([C@H](C)Oc4ccc(C#N)cn4)[C@@H](c4ccc(Cl)cc4)C3)cc2)n1 [Example 25, 6-((S)-1-{(3S,4S)-3-(4-Chloro-phenyl)-1-[4-(3-methyl-[1,2,4]oxadiazol-5-yl)-benzoyl]-piperidin-4-yl}-ethoxy)-nicotinonitrile]
Ki: 1.5 nM

Cc1nc(-c2ccc(C(=O)N3CC[C@H]([C@H](C)Oc4ccc(C#N)cn4)[C@@H](c4ccc(Cl)cc4)C3)cc2)no1 [Example 26, 6-((S)-1-{(3S,4S)-3-(4-Chloro-phenyl)-1-[4-(5-methyl-[1,2,4]oxadiazol-3-yl)-benzoyl]-piperidin-4-yl}-ethoxy)-nicotinonitrile]
Ki: 5.1 nM
